Reference: patent US4690939A, “Anti-hypertensive agents” (University of Miami, priority 1979, dated 1987)
Non-standard residues stand in square brackets, D forms with d. Residues, ends and D or L forms follow the SMILES beside them. No end group written: not given here. pGlu = O=C1CC[C@@H](C(=O)O)N1

What was measured:
ACE = settings: competitive substrates; cited from earlier work
human urinary ACE = molecular target: T1, human urinary ACE (Homo sapiens, UniProt P12821); test: ACE activity assay (inhibition of benzoyl-GlyHisLeu hydrolysis); format: biochemical; settings: substrate approximately 1/2 Km (Example 1 assay), read-out: I50
T1 construct: from tissue; host or cells: human urine
Protocol: These factors include the source of enzyme, its purity, the substrate used and its concentration, and the composition of the assay buffer.
ACE activity assay. […] To initiate the assay, 40 μl of enzyme and 10 μl of water or inhibitor dissolved in water were preincubated for five minutes at 37° C. […] To terminate the reaction, 1 ml of 0.1 M HCl was added, following which 1 ml of ethyl acetate was added. The mixture was agitated on a rotary mixer and centrifuged briefly to separate the phases.
For determination of I50 values, enzyme activity in the presence of inhibitor at a series of different concentrations was compared to activity in the absence of inhibitor.

T1 sequence (P12821 30-1232 limits assumed): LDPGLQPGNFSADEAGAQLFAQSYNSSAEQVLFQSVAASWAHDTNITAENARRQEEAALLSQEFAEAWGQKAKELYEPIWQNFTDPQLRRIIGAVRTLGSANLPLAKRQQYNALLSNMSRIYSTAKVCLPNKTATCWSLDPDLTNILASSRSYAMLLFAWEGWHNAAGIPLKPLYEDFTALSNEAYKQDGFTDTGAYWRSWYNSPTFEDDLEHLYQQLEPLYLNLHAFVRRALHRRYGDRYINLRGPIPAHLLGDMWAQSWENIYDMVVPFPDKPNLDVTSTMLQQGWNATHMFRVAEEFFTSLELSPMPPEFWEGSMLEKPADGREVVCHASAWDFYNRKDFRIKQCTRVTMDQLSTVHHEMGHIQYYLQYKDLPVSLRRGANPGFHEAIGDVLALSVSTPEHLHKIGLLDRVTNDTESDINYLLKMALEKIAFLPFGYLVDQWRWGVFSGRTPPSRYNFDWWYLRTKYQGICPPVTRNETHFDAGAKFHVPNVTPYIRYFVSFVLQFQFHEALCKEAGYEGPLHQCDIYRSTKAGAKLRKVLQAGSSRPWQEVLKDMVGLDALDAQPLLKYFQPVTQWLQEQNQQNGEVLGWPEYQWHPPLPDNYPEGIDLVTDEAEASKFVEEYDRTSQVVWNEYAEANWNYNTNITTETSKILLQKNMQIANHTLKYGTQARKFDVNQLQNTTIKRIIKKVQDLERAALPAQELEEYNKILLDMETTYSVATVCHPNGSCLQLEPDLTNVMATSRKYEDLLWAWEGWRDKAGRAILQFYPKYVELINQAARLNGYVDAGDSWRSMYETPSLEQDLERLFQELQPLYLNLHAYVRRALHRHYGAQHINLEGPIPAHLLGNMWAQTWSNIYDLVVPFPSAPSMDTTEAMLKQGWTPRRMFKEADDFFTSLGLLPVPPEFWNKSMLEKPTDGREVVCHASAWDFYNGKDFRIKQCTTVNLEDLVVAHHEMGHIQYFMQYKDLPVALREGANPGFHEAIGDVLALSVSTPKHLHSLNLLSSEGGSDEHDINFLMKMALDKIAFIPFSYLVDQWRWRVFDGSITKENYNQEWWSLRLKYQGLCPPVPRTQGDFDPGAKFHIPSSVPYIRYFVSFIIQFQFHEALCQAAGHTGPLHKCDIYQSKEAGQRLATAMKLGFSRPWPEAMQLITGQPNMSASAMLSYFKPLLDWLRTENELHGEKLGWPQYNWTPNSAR

Row | Compound | Km relative to angiotensin I (ACE) | IC50 (human urinary ACE) [µM]
1 | C[C@H](NC(=O)[C@H](Cc1c[nH]c2ccccc12)NC(=O)[C@H](CCCCN)NC(=O)[C@@H]1CCC(=O)N1)C(=O)N1CCC[C@H]1C(=O)O [BPP5a] ([pGlu]KWAP-OH) | lower Km than angiotensin I | 
2 | CC(=O)N[C@@H](Cc1ccccc1)C(=O)SC[C@@H](C)C(=O)N1CCC[C@H]1C(=O)O [N^α -[3-(N^α -acetyl-L-phenylalanylthio)-2-D-methylpropanoyl]-L-proline] |  | 0.026
3 | RPPGFSPFR [bradykinin] | lower Km than angiotensin I | 
